Literature values as cited in the CATMoS acute toxicity set (Mansouri et al. 2021).
Where “and” joins values, the source holds several entries; their conditions need not be identical. Identical values can stand only once.

Test: rat acute oral toxicity
Conditions: in vivo

Compound	LD50
C=CCOC(=O)CC#N	160 mg/kg
CCOP(=S)(OCC)SCC	80 mg/kg
CCCCCCCCCCCCCCCCCC(=O)OC[C@@H](O)[C@H]1OC[C@H](O)[C@H]1O	31000 mg/kg
C1COC(NC(C2CC2)C2CC2)=N1	295 mg/kg
CC(C)c1ccc2ccccc2c1C(C)C	15200 mg/kg
Cc1ccc2ccccc2c1	1630 mg/kg
O=C1O[C@@H]2[C@@H](O)[C@H](O)O[C@@H]2[C@H]1O	10700 mg/kg
CCOc1ccc(-n2c(C)nc3ccccc3c2=O)cc1	4800 mg/kg
COc1ccc2[nH]c(S(=O)Cc3ncc(C)c(OC)c3C)nc2c1 (stereo not given)	2210 mg/kg
C=C(Cl)CCl	320 mg/kg
O=C(Nc1cccc(Cl)c1)OCC#CCCl	527 mg/kg
O=C(O)C1CCc2cc(C3CCCCC3)c(Cl)cc21 (stereo not given)	41 mg/kg and 35 mg/kg
COc1ccc(CC2NCCc3cc(OC)c(OC)cc32)cc1OC (stereo not given)	700 mg/kg
CC(=O)OCCC(C)CCC=C(C)C (stereo not given)	6800 mg/kg
COc1ccc(/C=C/C(=O)Nc2ccccc2C(=O)O)cc1OC	1100 mg/kg
CCCC(=O)C1c2cccc(O)c2C(=O)c2c(O)cccc21	1580 mg/kg
O=c1oc2cc(Cl)ccc2n1CO	2800 mg/kg
O=[n+]1c2c(n([O-])c3ccccc31)CCCC2	1360 mg/kg
COc1ccc(-c2nc3ccc(C4=NNC(=O)CC4C)cc3[nH]2)cc1 (stereo not given)	950 mg/kg
O=C=Nc1ccccc1C(F)(F)F	7000 mg/kg
OC1(c2ccc(Cl)c(C(F)(F)F)c2)CCN(CCCC(c2ccc(F)cc2)c2ccc(F)cc2)CC1	160 mg/kg
CC(C)CCCCCc1ccc(O)cc1	2150 mg/kg
Clc1ccc(COC(Cn2ccnc2)c2ccc(Cl)cc2Cl)cc1 (stereo not given)	668 mg/kg
Cc1cc(N)ccc1S(=O)(=O)NCCO	8900 mg/kg

Compound	LD50
CCC1(C)CC(=O)NC1=O (stereo not given)	1820 mg/kg
C[Si]1(C)N[Si](C)(C)N[Si](C)(C)N1	500 mg/kg
CCCCN(C)N=O	130 mg/kg
CC1(C)COS(=O)(=O)OC1	10 mg/kg
CN(C)C(O)=Nc1ccc(-n2nc(C(C)(C)C)oc2=O)c(Cl)c1	1000 mg/kg
CC=CC#N	167 mg/kg and 501 mg/kg
CCCCCCCC=O	5630 mg/kg
Cn1c(=O)c2c(ncn2CCCCN2CCN(c3ccc(Cl)cc3)CC2)n(C)c1=O	505 mg/kg
N#CC(CCN1CCC(C(N)=O)(N2CCCCC2)CC1)(c1ccccc1)c1ccccc1	320 mg/kg
Cc1ccnc(N)c1	200 mg/kg
CCSCc1cnc(C)c(O)c1CO	3770 mg/kg
C(=NCCCCCCN=Cc1ccco1)c1ccco1	490 mg/kg
CCCCS(=O)(=O)NC1CCCCC1	2820 mg/kg
CCCOP(=S)(OC)SCN1C(=O)c2ccccc2C1=O (stereo not given)	90 mg/kg
CC(C)=CC1C(C(=O)OCc2ccc(C)cc2C)C1(C)C (stereo not given)	40000 mg/kg
CON=CC1=CCCN(C)C1	300 mg/kg
COc1cc(C(Cl)(Cl)Cl)cc(Cl)n1	1500 mg/kg
CC1CN(CCCCCCCCNC(=O)Oc2ccc3c(c2)C2(C)CCN(C)C2N3C)CC(C)O1 (stereo not given)	56 mg/kg
Sc1nc2ccccc2s1	100 mg/kg
NC(=O)COc1ccc(Cl)cc1Cl	1200 mg/kg
CC[N+](CC)(CC)Cc1ccccc1	2220 mg/kg
OC(CNCC(O)C1COc2ccccc2O1)C1COc2ccccc2O1 (stereo not given)	4490 mg/kg
C=Cc1ccc(CC)cn1	1230 mg/kg
CCCCOCCCC	7400 mg/kg

Compound	LD50
Cc1ccn(CO)n1	1650 mg/kg
COc1cc(Br)c2oc(C3CCNCC3)cc2c1	310 mg/kg
O=S(=O)(O)Oc1ccc(C(c2ccc(OS(=O)(=O)O)cc2)c2ccccn2)cc1	11300 mg/kg
CNC(=O)OC1C2(C)CCC(C2)C1(C)C (stereo not given)	500 mg/kg
Cc1cc(C(=O)NNCc2ccccc2)no1	280 mg/kg
CC(=C(CCO)SSCC1CCCO1)N(C=O)Cc1cnc(C)nc1N (stereo not given)	2200 mg/kg
O=C(O)c1nn(Cc2ccc(Cl)cc2)c2ccccc12	1140 mg/kg
O=[N+]([O-])c1ccc(Cl)c2nc(C(F)(F)F)[nH]c12	11.1 mg/kg
CCOc1ccc2c(OS(=O)(=O)O)c(-c3sc4cc(OCC)ccc4c3OS(=O)(=O)O)sc2c1	6700 mg/kg
C=CC(=O)OCC(C)O (stereo not given)	250 mg/kg
CCN(CC)C(=O)c1ccccc1O	580 mg/kg
COC(=O)C1=C(C)NC(C)=C(C(=O)OCCN2CCN(C(c3ccccc3)c3ccccc3)CC2)C1c1cccc([N+](=O)[O-])c1 (stereo not given)	156 mg/kg
C[N+]1(C)[C@@H]2CC[C@H]1C[C@@H](OC(=O)C(O)c1ccccc1)C2 (stereo not given in full)	1200 mg/kg
CCOP(=S)(OCC)SCSC(C)C	1.1 mg/kg
NC(=O)N1c2ccccc2C=Cc2ccccc21	1960 mg/kg
CC(C)C(OCCO)C(C)C	1070 mg/kg
O=C=Nc1ccc(Cc2ccc(N=C=O)cc2N=C=O)cc1	20000 mg/kg
Cc1nc2n(c(=O)c1CCN1CCC(c3noc4cc(F)ccc34)CC1)CCCC2	56.6 mg/kg
O=S(=O)(O)c1cccc2c(/N=N/c3ccc(/N=N/c4ccc(Nc5ccccc5)c5c(S(=O)(=O)O)cccc45)c4ccccc34)cccc12	15000 mg/kg
CCOC(C1=NCC(C)(C)N1)c1ccc(Cl)c(Cl)c1 (stereo not given)	110 mg/kg
CCOCCN(C(=O)CCl)C(=C(C)C)c1ccccc1	983 mg/kg
CN1CCN=C(c2ccccc2)c2cc(Cl)ccc21	900 mg/kg
